The text below walks through data of publication PMC10332405 (European journal of medicinal chemistry, 2023).

One experiment has as its target HIV-1 protease I84V (Human immunodeficiency virus type 1 group M subtype B, UniProt P12497, I572V/Q495K). Description: biochemical.
The target in another experiment is HIV-1 protease I50V/A71V (Human immunodeficiency virus type 1 group M subtype B, UniProt P12497, A559V/I538V/Q495K). The experiment in a line: biochemical.
Experiment [1] concerns human T-cell lymphotropic virus type 1 (HTLV-1) protease. The conditions noted are these: cited from earlier work.
A further experiment has as its system HIV-1-SLK. Description: Antiviral assay with resistant HIV-1 variant SLK. It counts as cell-based. Conditions: read-out: Antiviral EC50, HIV-1-SLK; multi-PI resistant recombinant virus.

Some results are limits rather than exact numbers.

The Ki is a measure of affinity in units of concentration, obtained from inhibition or displacement. Read a low Ki as a stronger hold on the target. As to `CCOP(=O)(COc1ccc(C[C@H](NC(=O)O[C@H]2CO[C@H]3OCC[C@H]32)[C@H](O)CN(CC(C)C)S(=O)(=O)c2ccc(OC)cc2)cc1)OCC` [GS-8374], the Ki at HIV-1 protease I84V and at HIV-1 protease I50V/A71V was less than 0.005 nM each time.

For `CCOP(=O)(COc1ccc(C[C@H](NC(=O)O[C@H]2CO[C@H]3OCC[C@H]32)[C@H](O)CN(CC(CC)CC)S(=O)(=O)c2ccc(N)cc2)cc1)OCC` [PU6, (3R,3aS,6aR)-Hexahydrofuro[2,3-b]furan-3-yl ((2S,3R)-4-((4-amino-N-(2-ethylbutyl)phenyl)sulfonamido)-1-(4-((diethoxyphosphoryl)methoxy)phenyl)-3-hydroxybutan-2-yl)carbamate], the “Inhibition of HTLV-1 protease” value in experiment [1] is given as “potent inhibitor”. As a reminder, the EC50 is the concentration needed to bring the measured effect to its halfway point. For `CCOP(=O)(COc1ccc(C[C@H](NC(=O)O[C@H]2CO[C@H]3OCC[C@H]32)[C@H](O)CN(CC(CC)CC)S(=O)(=O)c2ccc(OC)cc2)cc1)OCC` [PU7, (3R,3aS,6aR)-Hexahydrofuro[2,3-b]furan-3-yl ((2S,3R)-1-(4-((diethoxyphosphoryl)methoxy)phenyl)-4-((N-(2-ethylbutyl)-4-methoxyphenyl)sulfonamido)-3-hydroxybutan-2-yl)carbamate], the EC50 in the experiment with HIV-1-SLK was less than 10 nM.

On to `CCOP(=O)(COc1ccc(C[C@H](NC(=O)O[C@H]2CO[C@H]3OCC[C@H]32)[C@H](O)CN(CC(CC)CC)S(=O)(=O)c2ccc3c(c2)OCO3)cc1)OCC` [PU9, (3R,3aS,6aR)-Hexahydrofuro[2,3-b]furan-3-yl ((2S,3R)-1-(4-((diethoxyphosphoryl)methoxy)phenyl)-4-(N-(2-ethylbutyl)benzo[d][1,3]dioxole-5-sulfonamido)-3-hydroxybutan-2-yl)carbamate], for which, in the experiment on HIV-1-SLK, the EC50 was less than 10 nM.
